Molecular target: human muscarinic M3 receptor (Homo sapiens (Human), UniProt P20309)
Test: Binding assay on human muscarinic M3 receptor ([3H]-methyl scopolamine displacement)
Details: membranes overexpressing human M3 receptor, Ki from IC50 by Cheng-Prusoff, read-out: Binding Affinity to M3 Receptor, Ki
Procedure: [Experimental Example 1] Binding Assay on Human Muscarinic M3 Receptor
Cell membrane proteins (Perkin Elmer) wherein human muscarinic M3 receptor was overexpressed, [^3H]-methyl scopolamine and test compounds in various concentration were cultured in 0.2 ml of Tris-HCl buffer at 25° C. for 120 minutes. The same was filtered under suction through glass fiber filter (Whatman GF/B), and then the filter was washed 5 times with 1 ml of Tris-HCl buffer. The radioactivity of [^3H]-methyl scopolamine adsorbed on the filter was measured by a liquid scintillation counter. Non-specific binding was evaluated under existence of 5 μM of atropine. Affinity of the compound of the present invention to muscarinic M3 receptor was calculated as the dissociation constant (Ki), which can be calculated from concentration (IC50) of test compounds inhibiting 50% of binding of [^3H]-methyl scopolamine (i.e. labeled ligand) according to Cheng and Prusoff [Cheng and Prusoff, Biochem. Pharmacol., 22, 3099, 1973].

Chain of human muscarinic M3 receptor (P20309 whole entry): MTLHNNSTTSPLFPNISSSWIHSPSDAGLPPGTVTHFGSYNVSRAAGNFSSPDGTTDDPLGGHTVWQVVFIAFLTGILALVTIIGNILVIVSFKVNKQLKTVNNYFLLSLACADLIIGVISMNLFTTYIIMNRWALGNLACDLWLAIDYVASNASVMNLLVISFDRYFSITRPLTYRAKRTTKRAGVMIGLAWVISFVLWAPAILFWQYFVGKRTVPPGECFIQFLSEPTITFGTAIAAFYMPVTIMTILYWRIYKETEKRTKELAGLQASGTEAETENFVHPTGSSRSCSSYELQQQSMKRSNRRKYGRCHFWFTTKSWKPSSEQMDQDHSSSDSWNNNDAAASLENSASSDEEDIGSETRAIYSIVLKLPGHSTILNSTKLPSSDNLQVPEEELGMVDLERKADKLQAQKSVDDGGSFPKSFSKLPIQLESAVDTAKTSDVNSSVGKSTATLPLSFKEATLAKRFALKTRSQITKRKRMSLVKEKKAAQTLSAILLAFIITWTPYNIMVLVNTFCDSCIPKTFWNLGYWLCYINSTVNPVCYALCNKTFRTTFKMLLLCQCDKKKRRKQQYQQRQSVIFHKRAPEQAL

Row | Ki [nM] | SMILES
1 | 69.6 | Cc1cc(C)cc(-c2cc(F)ccc2NC(=O)OCCC2CCCN2C)c1 (centres unmarked) [Example 45, 2-(1-methylpyrrolidin-2-yl)ethyl(5-fluoro-3′,5′-dimethyl-[1,1′-biphenyl]-2-yl)carbamate]
2 | 80.1 | CN1CCCC1CCOC(=O)Nc1ccccc1-c1ccc(C(F)(F)F)cc1 (centres unmarked) [Example 13, 2-(1-methylpyrrolidin-2-yl)ethyl(4′-trifluoromethyl-[1,1′-biphenyl]-2-yl)carbamate]
3 | 7.32 | Cc1ccc(NC(=O)OC[C@@H]2CCCN2C)c(-c2ccccc2)c1 [Example 206, (S)-(1-methylpyrrolidin-2-yl)methyl(5-methyl-[1,1′-biphenyl]-2-yl)carbamate]
4 | 311 | CN1CCCC1CCOC(=O)Nc1ccccc1-c1ccc(C(C)(C)C)cc1 (centres unmarked) [Example 31, 2-(1-methylpyrrolidin-2-yl)ethyl(4′-(tert-butyl)-[1,1′-biphenyl]-2-yl)carbamate]
5 | 52.8 | CN1CC[C@H](COC(=O)Nc2ccc(F)cc2-c2cc(O)cc(Cl)c2)C1 [Example 123, (S)-(1-methylpyrrolidin-3-yl)methyl(3′-chloro-5-fluoro-5′-hydroxy-[1,1′-biphenyl]-2-yl)carbamate]
6 | 67.3 | CN1CCC[C@H]1COC(=O)Nc1ccccc1-c1ccc(Cl)cc1Cl [Example 167, (S)-(1-methylpyrrolidin-2-yl)methyl(2′,4′-dichloro-[1,1′-biphenyl]-2-yl)carbamate]
7 | 28.3 | COc1ccc(NC(=O)OC[C@@H]2CCCN2C)c(-c2ccccc2)c1 [Example 222, (S)-(1-methylpyrrolidin-2-yl)methyl(5-methoxy-[1,1′-biphenyl]-2-yl)carbamate]
8 | 87.8 | Cc1cc(C)cc(-c2cc(F)ccc2NC(=O)OC[C@H]2CCN(C)C2)c1 [Example 122, (S)-(1-methylpyrrolidin-3-yl)methyl(5-fluoro-3′,5′-dimethyl-[1,1′-biphenyl]-2-yl)carbamate]
9 | 34.5 | CN1CC[C@@H](COC(=O)Nc2ccc(F)cc2-c2cccc(N)c2)C1 [Example 133, (R)-(1-methylpyrrolidin-3-yl)methyl(5-fluoro-3′-amino-[1,1′-biphenyl]-2-yl)carbamate]
10 | 119 | CN1CCCC1CCOC(=O)Nc1ccccc1-c1cccc(O)c1 (centres unmarked) [Example 40, 2-(1-methylpyrrolidin-2-yl)ethyl(3′-hydroxy-[1,1′-biphenyl]-2-yl)carbamate]
11 | 303 | CN1CCCC1CCOC(=O)Nc1ccc(C(F)(F)F)cc1-c1cccc(F)c1 (centres unmarked) [Example 49, 2-(1-Methylpyrrolidin-2-yl)ethyl(3′-fluoro-5-(trifluoromethyl)-[1,1′-biphenyl]-2-yl)carbamate]
12 | 88 | CN1CCCC1CCOC(=O)Nc1ccccc1-c1cccc(C(F)(F)F)c1 (centres unmarked) [Example 12, 2-(1-methylpyrrolidin-2-yl)ethyl(3′-trifluoromethyl-[1,1′-biphenyl]-2-yl)carbamate]
13 | > 1000 | CN1CCCC1CCOC(=O)Nc1ccc(C(F)(F)F)cc1-c1cc(F)cc(F)c1 (centres unmarked) [Example 50, 2-(1-Methylpyrrolidin-2-yl)ethyl (3′,5′-difluoro-5-(trifluoromethyl)-[1,1′-biphenyl]-2-yl)carbamate]
14 | 471 | CN1CCCC1CCOC(=O)Nc1ccc(O)cc1-c1cc(F)cc(F)c1 (centres unmarked) [Example 75, 2-(1-methylpyrrolidin-2-yl)ethyl (3′,5′-difluoro-5-hydroxy-[1,1′-biphenyl]-2-yl)carbamate]
15 | 58.1 | COc1ccc(NC(=O)OCCC2CCCN2C)c(-c2cccc(Cl)c2)c1 (centres unmarked) [Example 63, 2-(1-methylpyrrolidin-2-yl)ethyl(3′-chloro-5-methoxy-[1,1′-biphenyl]-2-yl)carbamate]
16 | > 1000 | CN1CC[C@@H](COC(=O)Nc2ccccc2-c2ccc(C=O)c(F)c2)C1 [Example 74, (R)-(1-methylpyrrolidin-3-yl)methyl (3′-fluoro-4′-formyl-[1,1′-biphenyl]-2-yl)carbamate]

Row | SMILES | Ki [nM]
17 | Cc1cccc(-c2ccccc2NC(=O)OC[C@H]2CCCN2C)c1 [Example 110, (R)-(1-methylpyrrolidin-2-yl)-methyl (3′-methyl-[1,1′-biphenyl]-2-yl)carbamate] | 9.13

— patent US9828339B2, “Biphenyl derivatives and methods for preparing same” (DONG-A ST CO., LTD, priority 2013, dated 2017)
